The values below come from article PMC9369325, “MATE1 Deficiency Exacerbates Dofetilide-Induced Proarrhythmia” (International Journal of Molecular Sciences, 2022).

In one data set the target is T1, human MATE1 (Homo sapiens, UniProt Q96FL8).
T1 sequence (Q96FL8 1-570): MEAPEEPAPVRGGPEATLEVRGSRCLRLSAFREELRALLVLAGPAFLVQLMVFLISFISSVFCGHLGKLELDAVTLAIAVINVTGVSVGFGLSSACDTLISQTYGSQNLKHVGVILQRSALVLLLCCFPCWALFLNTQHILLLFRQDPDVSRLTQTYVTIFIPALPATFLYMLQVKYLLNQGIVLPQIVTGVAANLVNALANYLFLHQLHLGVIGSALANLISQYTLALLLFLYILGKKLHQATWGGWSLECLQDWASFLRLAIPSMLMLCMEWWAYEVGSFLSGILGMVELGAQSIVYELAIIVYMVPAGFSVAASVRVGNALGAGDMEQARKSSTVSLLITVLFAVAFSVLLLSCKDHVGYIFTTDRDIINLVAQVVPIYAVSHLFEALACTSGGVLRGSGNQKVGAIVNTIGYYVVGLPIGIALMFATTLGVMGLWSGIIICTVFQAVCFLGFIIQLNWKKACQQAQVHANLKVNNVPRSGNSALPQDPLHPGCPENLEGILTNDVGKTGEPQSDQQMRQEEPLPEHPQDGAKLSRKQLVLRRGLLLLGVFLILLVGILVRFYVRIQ
Briefly: cell-based.

For data set [1] the following is noted: humans; cited from earlier work.
Data set [2] has as its system cardiomyocytes isolated from wild-type or MATE1-deficient mice. Description: Ex vivo cardiomyocyte uptake of [3H] dofetilide. It is filed as cell-based, mouse. The note with it: [3H] dofetilide 2 µM; cardiomyocytes from MATE1-/- vs wild-type mice. The method, then:
Briefly, hearts from wild-type and MATE1-deficient mice were quickly removed and perfused on a Langendorff’s apparatus at 37 °C. After a 5 min perfusion with Ca^2+-free tyrode solution containing (in mM): 140 NaCl, 5.4 KCl 0.5 MgCl2, 10 Hepes and 5.6 glucose; pH 7.3, the perfusate was then switched to tyrode solution containing Liberase Blendzymes (Roche, Applied Science, IN) for digestion of the connective tissue. After 20 min of digestion, cardiomyocytes were isolated from dissected and triturated hearts and stabilized in BSA containing tyrode solution.
Isolated cardiomyocytes were then plated in 12 well plates containing Ca^2+ and Mg^2+ free Hank’s balanced salt solution.

A further data set addresses T2, MATE1 (SLC47A1) (Homo sapiens, UniProt Q96FL8).
T2 sequence (Q96FL8 1-570): T1 sequence (Q96FL8 1-570)
Description: in vitro. The note with it: HEK293 cells overexpressing human MATE1.

The target of the next data set is T3, human (h) MATE1 (Homo sapiens, UniProt Q96FL8).
T3 construct: host or cells: HEK293 (Flp-In system, pcDNA5/FRT vector)
T3 sequence (Q96FL8 1-570): T1 sequence (Q96FL8 1-570)
Briefly: Uptake of [14C] TEA and [14C] metformin in HEK293 cells overexpressing human MATE1 after preincubation with dofetilide. The data set is classed as cell-based. The note with it: dofetilide 1-50 µM, preincubation 15 min; TEA 2 µM, metformin 5 µM. Here is the method:
In brief, cells were seeded in 12- or 24-well plates in phenol red-free DMEM containing 10% FBS, and were incubated at 37 °C for 24 h. […] Uptake studies were performed with [^14C] […]
overexpressing mouse (m) OCT2, OCTN1, or MATE1. Relative uptake is expressed as percentage change compared with empty vector controls (n = 3). (B) Uptake of [14C] TEA (2 µM) and [14C] metformin (5 µM) in HEK293 cells […]
followed by the co-incubation with TEA and metformin for 15 min. Data represent the mean ± SEM and are expressed as a percentage over vector control. (C) Gene expression of MATE1 in the kidney isolated from untreated male and female wild-type mice (n = 4 per group). (D) Protein expression of MATE1 in the heart isolated from untreated wild-type (WT) and MATE1-/- mice (n=3). Immunohistochemical detection of MATE1 (bottom panels) in the wild-type mouse heart (E) and kidney (F). Tissue staining lacking the primary antibody was performed as a negative control for each tissue group (top panels). Representative images were taken at x40 magnification. (G) […]
(also on this page, place not known: hMATE1 (% Control) mOCT2mOCTN1mMA TE 1 No PrimaryMATE1 Relative Uptake in of) […]

Usually IC50 stands for the concentration that inhibits the measured activity by half. A low value points to greater potency. Compound `CCC(C)n1ncn(-c2ccc(N3CCN(c4ccc(OCC5COC(Cn6cncn6)(c6ccc(Cl)cc6Cl)O5)cc4)CC3)cc2)c1=O` (stereo not shown) [Itraconazole, itraconazole] yielded an IC50 against human MATE1 of 320 nM.

With `CC(=O)N1CCN(c2ccc(OCC3COC(Cn4ccnc4)(c4ccc(Cl)cc4Cl)O3)cc2)CC1` (stereo not shown) [Ketoconazole, ketoconazole], on human MATE1, the IC50 came to 170 nM. This IC50 lies about 1.9-fold lower than the previous one.

`COc1cc2c(Nc3ccc(Br)cc3F)ncnc2cc1OCC1CCN(C)CC1` [Vandetanib, vandetanib]: inhibition on human MATE1 was half-maximal at 130 nM (IC50).

As usually defined, the Km is the concentration of substrate that gives half-maximal velocity. Regarding `CN(CCOc1ccc(NS(C)(=O)=O)cc1)CCc1ccc(NS(C)(=O)=O)cc1` [dofetilide], the “higher dofetilide plasma concentrations in females than males” value in data set [1] is reported as 14–22%. In addition, the “accumulation of dofetilide in cardiomyocytes” value in data set [2] is listed as “significantly increased in the absence of MATE1”. Besides, the Michaelis constant (Km) at 2 min at MATE1 (SLC47A1) is 6.72 ± 1.71 µM. In addition, at human (h) MATE1, the “inhibition of MATE1-dependent transport of TEA and metformin” value is given as “dose-dependently inhibit”.
